Consider 3 compounds from publication PMC9000735, “In Vitro Alpha-Glucosidase Inhibitory Activity and the Isolation of Luteolin from the Flower of Gymnanthemum amygdalinum (Delile) Sch. Bip ex Walp” (Molecules, 2022).

The target in assay [1] is T1, α-glucosidase (Saccharomyces cerevisiae, UniProt P53341).
T1 construct: purchased Sigma-Aldrich G5003
Description: biochemical. Conditions: for IC50: mean ± SD, n = 3, linear regression. As to the method: A specific spray reagent, citroborate (5 g citric acid, 5 g boric acid, and 100 mL ethanol), and 10% (v/v) H2SO4 in a MeOH solution were used to identify flavonoids and other compounds. Additionally, during extraction and separation, the entire solvents were distilled before use, making them of technical grade.
Alpha-glucosidase inhibition was assessed using the adopted method with slight modifications. Phosphate buffer solution (36 μL), a sample solution with different concentrations ([…]), and pNPG substrate with 6 mM concentration (17 μL) were successively added to 96 microplate wells. The incubation of this mixture was performed at 37 °C for 5 min. In each well, 17 μL of alpha-glucosidase solution at 0.2 U/mL was added to obtain a total volume of […], which was followed by incubation at 37 °C for 15 min. Furthermore, the initial reaction was brought to completion by the addition of Na2CO3 solution (100 μL) at 200 mM. […] Percentage inhibition was used to express the inhibitory activity of alpha-glucosidase, while the calculation followed the formula below:
Inhibition percentage (%) = (B1–B2)/B1 × 100%.
B1 = Blank absorbance * − control of blank absorbance **
B2 = Sample absorbance − control of sample absorbance ***
The IC50 was calculated using a linear regression equation (y = a + bx) in which the sample concentration was represented on the x-axis and the percentage inhibition was represented on the y-axis.

For assay [2], the system named is alpha-glucosidase. More on the design: method as in PMID 35215317. To be noted: cited from earlier work.

Read-outs that look alike come from different tables or passages of the source.

T1 sequence (P53341 whole entry): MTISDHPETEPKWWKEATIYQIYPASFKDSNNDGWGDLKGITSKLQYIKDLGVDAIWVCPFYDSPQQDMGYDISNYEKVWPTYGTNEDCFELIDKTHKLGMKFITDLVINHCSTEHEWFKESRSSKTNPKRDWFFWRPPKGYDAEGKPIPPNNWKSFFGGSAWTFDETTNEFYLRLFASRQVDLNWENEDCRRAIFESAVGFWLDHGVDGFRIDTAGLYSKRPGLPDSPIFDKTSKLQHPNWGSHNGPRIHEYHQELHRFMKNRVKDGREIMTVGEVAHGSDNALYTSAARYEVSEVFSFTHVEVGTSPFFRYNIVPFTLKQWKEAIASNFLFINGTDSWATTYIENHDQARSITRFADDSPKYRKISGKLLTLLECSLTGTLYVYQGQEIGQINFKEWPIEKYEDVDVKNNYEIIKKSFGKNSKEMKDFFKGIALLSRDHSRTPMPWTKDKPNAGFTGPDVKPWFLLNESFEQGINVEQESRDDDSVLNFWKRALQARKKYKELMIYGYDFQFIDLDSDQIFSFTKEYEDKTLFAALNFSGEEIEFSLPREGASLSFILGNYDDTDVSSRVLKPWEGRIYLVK

The inhibition is the relative decrease from the control value, in per cent. In assay [1], `C[C@H]1O[C@H](O[C@H]2[C@H](O)[C@@H](O)[C@@H](O[C@H]3[C@H](O)[C@@H](O)C(O)O[C@@H]3CO)O[C@@H]2CO)[C@H](O)[C@@H](O)[C@@H]1N[C@H]1C=C(CO)[C@@H](O)[C@H](O)[C@H]1O` (stereo partly shown) [Acarbose, acarbose] displayed an inhibition at 100 µg/mL of 42.13 ± 0.12% and an inhibition at 200 µg/mL of 66 ± 1.11%. In addition, in assay [1] (read-out: Inhibition (in %)), the inhibition at 100 µg/mL is 43.1 ± 0.92% and the inhibition at 200 µg/mL amounted to 66.8 ± 2.11%.

Usually IC50 stands for the concentration that inhibits the measured activity by half. A higher IC50 goes with weaker potency in that assay. `COc1c(-c2ccc(O)c(O)c2)oc2cc(O)cc(O)c2c1=O` [Compound 2, 2-(3,4-dihydroxyphenyl)-5,7-dihydroxy-3-methoxy-4H-chromen-4-one]: in assay [1], the IC50 is 126 µM.

`O=c1cc(-c2ccc(O)c(O)c2)oc2cc(O)cc(O)c12` [Compound 1, 2-(3,4-dihydroxyphenyl)-5,7-dihydroxy-4H-chromen-4-one]: the inhibition mechanism type result in assay [2] is recorded as “non-competitive”. The IC50 in assay [1] was 22.8 µM.
